Structures are written as SMILES. “And” between values parts separate entries of the source, which are not always exact repeats. Equal values may be shown once.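 48-hour exposure; five concentrations; linearly interpolated endpoints. Here, GI50 denotes the concentration required for 50% inhibition of growth.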 The source made the active and inactive calls. Rule as the data show it: active = GI50 up to about 1.1 µM and inactive = higher. Bounds are passed on as bounds.

Test systems include SK-MEL-5; Malme-3M; HL-60; SF-539; NCI-H460; CCRF-CEM; SF-295; SK-OV-3; OVCAR-5; LOX IMVI; TK-10; HCT-15; IGROV-1; NCI-H23.
Common to all, as to test: growth of human tumour cells (NCI), 48 h

As for `C=CCn1c(=S)sc2c(O)ncnc21`, the GI50 with SK-MEL-5, in the assay on Malme-3M, in the assay on HL-60, in the assay on SF-539, in the assay with NCI-H460 and in the assay on CCRF-CEM was > 100 µM (inactive) throughout. For the same compound, the GI50 in the assay on SF-295 was > 100 µM (inactive); in the assay on SK-OV-3, > 100 µM (inactive); in the assay with OVCAR-5 it was > 100 µM (inactive); in the assay on LOX IMVI it was > 100 µM (inactive); in the assay with TK-10, > 100 µM (inactive); in the assay with HCT-15, > 100 µM. In addition, the GI50 in the assay on IGROV-1 and with NCI-H23 was > 100 µM (inactive) in each case.

With `Sc1nnc(-c2cccnc2)[nH]1`, the GI50 in the assay on SK-MEL-5, in the assay with Malme-3M, with HL-60, in the assay with NCI-H460, in the assay with CCRF-CEM and in the assay on SF-295 was > 100 µM (inactive) each time. Also, the GI50 is > 100 µM (inactive) with SK-OV-3; > 100 µM (inactive) with OVCAR-5; > 100 µM (inactive) in the assay with LOX IMVI; > 100 µM (inactive) with TK-10; > 100 µM with HCT-15; > 100 µM (inactive) with NCI-H23.

`COC(=O)C(Cc1nc2ccccc2nc1C)/C(=N\NC(N)=O)C(=O)Nc1cccc([N+](=O)[O-])c1` (centres undefined): the GI50 in the assay on SK-MEL-5 is > 100 µM (inactive); with Malme-3M it was > 100 µM (inactive); with HL-60 it was 36.1 µM (inactive); in the assay with SF-539, 74.3 µM (inactive); in the assay on NCI-H460 it was > 100 µM (inactive); in the assay with CCRF-CEM, 29.6 µM (inactive). The GI50 is > 100 µM (inactive) with SF-295; > 100 µM (inactive) in the assay with SK-OV-3; > 100 µM (inactive) with OVCAR-5; > 100 µM (inactive) in the assay with LOX IMVI; > 100 µM (inactive) with TK-10; > 100 µM with HCT-15. In addition, the GI50 is > 100 µM (inactive) with IGROV-1 and 71.8 µM (inactive) in the assay on NCI-H23.

Turning to `Cc1ccc(N2C(=O)/C(=C3\Sc4c(nc(C)[nH]c4=O)N3c3ccccc3)SC2=S)cc1`, the GI50 in the assay on SK-MEL-5 is > 100 µM (inactive); in the assay on Malme-3M, 46.8 µM (inactive); in the assay with HL-60, > 100 µM (inactive); in the assay with SF-539, 10 µM (inactive); with NCI-H460, 22.2 µM (inactive); in the assay on CCRF-CEM, 44.6 µM (inactive). Besides, the GI50 is 18 µM (inactive) with SF-295; 15.8 µM (inactive) in the assay on SK-OV-3; > 100 µM (inactive) in the assay with OVCAR-5; 15.5 µM (inactive) in the assay with LOX IMVI; 24 µM (inactive) in the assay with TK-10; 16.4 µM in the assay with HCT-15. For the same compound, the results for the GI50 in the assay with IGROV-1 and with NCI-H23 were 60.3 µM (inactive) and 19.8 µM (inactive), respectively.

For the compound `CCOC(=O)/C(=C/c1cccc(OC)c1)N(CC)CC`, the GI50 is > 100 µM (inactive) in the assay on SK-MEL-5; > 100 µM (inactive) in the assay with HL-60; > 100 µM (inactive) in the assay with SF-539; > 10 µM (inactive) in the assay on NCI-H460; > 100 µM (inactive) in the assay on CCRF-CEM; > 100 µM (inactive) in the assay on SF-295. Moreover, the GI50 was > 100 µM (inactive) in the assay on SK-OV-3; > 100 µM (inactive) with OVCAR-5; > 100 µM (inactive) with LOX IMVI; > 100 µM (inactive) with TK-10; > 100 µM with HCT-15; > 100 µM (inactive) in the assay on IGROV-1. Also, the GI50 with NCI-H23 was > 100 µM (inactive).

`Clc1cc2n[se]nc2cc1Cl`: the GI50 was > 100 µM (inactive) in the assay on SK-MEL-5; > 100 µM (inactive) in the assay with Malme-3M; 84.1 µM (inactive) in the assay on HL-60; > 100 µM (inactive) in the assay on SF-539; > 100 µM (inactive) with NCI-H460; > 100 µM (inactive) in the assay with CCRF-CEM. Besides, the GI50 with SF-295 was > 100 µM (inactive); in the assay with SK-OV-3, > 100 µM (inactive); in the assay with OVCAR-5, > 100 µM (inactive); with LOX IMVI it was > 100 µM (inactive); in the assay with TK-10, > 100 µM (inactive); in the assay with HCT-15 it was > 100 µM. In addition, the GI50 in the assay with IGROV-1 and in the assay with NCI-H23 was > 100 µM (inactive) in each case.

For `O=C1c2ccccc2N2OC3(N4CCCC4)CCCC3C12c1ccccc1` (centres undefined), the GI50 with SK-MEL-5 is 61.4 µM (inactive); with Malme-3M, > 100 µM (inactive); in the assay with HL-60, 43.3 µM (inactive); in the assay on SF-539, > 100 µM (inactive); in the assay on CCRF-CEM it was > 100 µM (inactive); in the assay with SF-295, 86.1 µM (inactive). Besides, the GI50 in the assay with SK-OV-3 is > 100 µM (inactive); with HCT-15, > 100 µM; in the assay with IGROV-1, > 100 µM (inactive); in the assay with NCI-H23, > 100 µM (inactive).

With `COc1cccc2c(SCC(=O)Nc3ccccc3-c3ccccc3NC(=O)CSc3c4ccccc4nc4c(OC)cccc34)c3ccccc3nc12`, the GI50 with SK-MEL-5 was > 100 µM (inactive); in the assay with HL-60, 9.93 µM (inactive); in the assay with SF-539 it was 60.5 µM (inactive); with NCI-H460, > 100 µM (inactive); with CCRF-CEM, > 100 µM (inactive); in the assay on SF-295, > 100 µM (inactive). For the same compound, the GI50 with OVCAR-5 is > 100 µM (inactive); with TK-10, > 100 µM (inactive); with HCT-15, > 100 µM; with IGROV-1, 43.1 µM (inactive); in the assay with NCI-H23, > 100 µM (inactive).

For the compound `CCCC(N)C(=O)c1ccccc1` (centres undefined), the GI50 with SK-MEL-5, in the assay with Malme-3M, in the assay with HL-60, in the assay with SF-539, in the assay with NCI-H460 and in the assay with CCRF-CEM was > 100 µM (inactive) throughout. The GI50 in the assay on SF-295 is > 100 µM (inactive); in the assay with SK-OV-3, > 100 µM (inactive); with OVCAR-5 it was > 100 µM (inactive); with LOX IMVI it was > 100 µM (inactive); in the assay with TK-10, > 100 µM (inactive); with HCT-15, > 100 µM. Besides, the GI50 with IGROV-1 and in the assay with NCI-H23 was > 100 µM (inactive) in each case.

With `NC1=NS(=O)(=O)Nc2nc(-c3ccc(Cl)cc3)c(-c3ccc(Cl)cc3)nc21`, the GI50 is > 100 µM (inactive) with SK-MEL-5; > 100 µM (inactive) in the assay on Malme-3M; > 100 µM (inactive) in the assay on HL-60; > 100 µM (inactive) in the assay on SF-539; > 100 µM (inactive) in the assay on NCI-H460; 82.4 µM (inactive) in the assay on CCRF-CEM. Also, the GI50 with SF-295 was > 100 µM (inactive); in the assay on OVCAR-5 it was > 100 µM (inactive); with LOX IMVI, 29.3 µM (inactive); in the assay with TK-10, > 100 µM (inactive); with IGROV-1, > 100 µM (inactive); with NCI-H23 it was > 100 µM (inactive).

`Nc1ccc(C(=O)O)c2[nH]c3ccccc3c(=O)c12`: the GI50 in the assay with SK-MEL-5 is > 100 µM (inactive); with Malme-3M it was > 100 µM (inactive); with HL-60 it was > 100 µM (inactive); with SF-539, > 100 µM (inactive); with NCI-H460 it was > 100 µM (inactive); with CCRF-CEM it was 88.7 µM (inactive). The GI50 with SF-295 is > 100 µM (inactive); in the assay on SK-OV-3, > 100 µM (inactive); in the assay on OVCAR-5, > 100 µM (inactive); in the assay with LOX IMVI it was > 100 µM (inactive); with TK-10 it was > 100 µM (inactive); in the assay with HCT-15, > 100 µM. Further, the GI50 in the assay with IGROV-1 is > 100 µM (inactive).

Take `CC1=C(C(=O)Nc2c(C)cccc2C)C(c2ccc3c(c2)OCO3)C(C(=O)Nc2c(C)cccc2C)=C(C)N1`: the GI50 with Malme-3M is 20.2 µM (inactive); in the assay on HL-60, 16.3 µM (inactive); with SF-539, 19.2 µM (inactive); in the assay with NCI-H460, 18.5 µM (inactive); in the assay on CCRF-CEM, 7.36 µM (inactive); in the assay with SF-295 it was 16.5 µM (inactive). In addition, the GI50 in the assay with SK-OV-3 was 77.3 µM (inactive); in the assay with OVCAR-5, 19.1 µM (inactive); in the assay with LOX IMVI, 13.7 µM (inactive); in the assay on TK-10, 24.7 µM (inactive); in the assay on IGROV-1 it was 4.2 µM (inactive); in the assay with NCI-H23, 16.1 µM (inactive).

Take `CCCCCC(CN1CCOCC1)C(=O)/C=C/c1ccccc1` (centres undefined): the GI50 was 1.53 µM (inactive) in the assay on SK-MEL-5; 2.1 µM (inactive) in the assay with Malme-3M; 1.85 µM (inactive) in the assay with HL-60; 2.07 µM (inactive) in the assay on SF-539; 2.77 µM (inactive) in the assay on NCI-H460; 1.94 µM (inactive) with CCRF-CEM. For the same compound, the GI50 was 3.46 µM (inactive) in the assay on SF-295; 2.71 µM (inactive) in the assay on SK-OV-3; 2.63 µM (inactive) in the assay on OVCAR-5; 1.37 µM (inactive) with LOX IMVI; 2.03 µM in the assay with HCT-15; 3.37 µM (inactive) in the assay with IGROV-1. For the same compound, the GI50 in the assay on NCI-H23 was 3.36 µM (inactive).

`O=S(O)CCCCSSCC(O)C(O)CSSCCCCS(=O)O` (centres undefined): the GI50 in the assay on Malme-3M was 7.08 µM (inactive) and 7.24 µM (inactive); with HL-60, 10.2 µM (inactive) and 10.6 µM (inactive); with SF-539 it was 17.6 µM (inactive) and 23 µM (inactive); in the assay on NCI-H460, 52.4 µM (inactive) and 40.4 µM (inactive); in the assay with CCRF-CEM it was 3.37 µM (inactive) and 3.21 µM (inactive); in the assay on SF-295, 15.5 µM (inactive) and 12.4 µM (inactive). In addition, the GI50 in the assay with SK-OV-3 is > 100 µM (inactive); with OVCAR-5, > 100 µM (inactive) and 74.8 µM (inactive); in the assay on LOX IMVI, 15.4 µM (inactive) and 10.8 µM (inactive); with TK-10, 68.2 µM (inactive) and 53.8 µM (inactive); in the assay on HCT-15, 30.5 µM and 29.6 µM; in the assay with IGROV-1, 83.6 µM (inactive) and 44.5 µM (inactive). Also, the GI50 in the assay on NCI-H23 is 18.4 µM (inactive) and 29.2 µM (inactive).

Turning to `CCN(CC)CCCCC1CCN(CC(=O)N2c3ccccc3NC(=O)c3ccccc32)CC1`, the GI50 is > 100 µM (inactive) with SK-MEL-5; 81.5 µM (inactive) with Malme-3M; > 100 µM (inactive) with HL-60; > 100 µM (inactive) with SF-539; 64.9 µM (inactive) in the assay with CCRF-CEM; > 100 µM (inactive) in the assay with SF-295. Besides, the GI50 is > 100 µM (inactive) with SK-OV-3, > 100 µM (inactive) with TK-10 and 55.6 µM (inactive) in the assay with NCI-H23.

In the case of `[N-]=[N+]=NC1C(Cl)C(=O)NC(=O)N1[C@H]1C[C@H](O)[C@@H](CO)O1` (some centres undefined), the GI50 in the assay on Malme-3M is 13.3 µM (inactive); in the assay on HL-60, > 100 µM (inactive); with SF-539, > 100 µM (inactive); with NCI-H460, > 100 µM (inactive); in the assay on SF-295, > 100 µM (inactive); in the assay on SK-OV-3 it was > 100 µM (inactive). Moreover, the GI50 in the assay on OVCAR-5, in the assay with LOX IMVI, with TK-10, in the assay on IGROV-1 and in the assay with NCI-H23 was > 100 µM (inactive) each time.
